20 compounds from patent US12404304B1, “Telomerase reverse transcriptase (TERT) expression enhancing compounds and methods for using the same” (Sierra Sciences, LLC, priority 2007, dated 2025) can be followed below.

The subject of series [1] is human TERT expression (hTERT mRNA). The series can be described thus: Quantitative real-time RT-PCR of hTERT mRNA expression (Ct, transcripts) in compound-treated cells. The series is classed as cell-based. The conditions noted are these: quantitative real-time RT-PCR. The method in brief:
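Read-out is cycle threshold, the cycle at which probe fluorescence released by Taq 5′-nuclease activity crosses a set level; Ct falls as hTERT mRNA rises. cDNA of treated and untreated cells was compared, with starting transcripts quantified against a known-cDNA standard curve.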

A further series relates to viable cells in culture. The series can be described thus: Cell viability assay (CellTiter-Glo Luminescent Cell Viability Assay, ATP quantitation, percent of vehicle control). In general terms: In ATP-based viability assays light output follows the ATP content of the culture.

Structures are written as SMILES.

For `O=C(CSc1ccc(-c2ccccn2)nn1)Nc1ccc2c(c1)OCO2` [compound 1255], in series [1], the “Average Number of hTERT Transcripts” value stood at 56.91. In addition, the “Average Cell Viability after 24 Hours (% DMSO)” value in the series on viable cells in culture is given as 76.32 % DMSO.

Turning to `O=C(CSc1ccc(-c2ccccn2)nn1)Nc1ccc2c(c1)OCCO2` [compound 1256], the “Average Number of hTERT Transcripts” value in series [1] was 33.82. For the same compound, the “Average Cell Viability after 24 Hours (% DMSO)” value with viable cells in culture came out at 73.30 % DMSO.

For `O=C(CSc1ccc(-c2ccccn2)nn1)Nc1ccccc1F` [compound 1257], the “Average Number of hTERT Transcripts” value in series [1] is listed as 37.50. For the same compound, in the series on viable cells in culture, the “Average Cell Viability after 24 Hours (% DMSO)” value worked out at 82.05 % DMSO.

As to `Brc1ccc(CSc2ccc(-c3ccccn3)nn2)cc1` [compound 1258], the “Average Number of hTERT Transcripts” value in series [1] stood at 12.89. In the series with viable cells in culture, the “Average Cell Viability after 24 Hours (% DMSO)” value is 53.72 % DMSO.

With `COc1cc(NC(=O)CSc2ccc(-c3ccccn3)nn2)cc(OC)c1` [compound 1259], the “Average Number of hTERT Transcripts” value in series [1] was 10.70. The “Average Cell Viability after 24 Hours (% DMSO)” value in the series with viable cells in culture is given as 60.54 % DMSO.

Take `Clc1cccc(CSc2ccc(-c3ccccn3)nn2)c1` [compound 1260]: in series [1], the “Average Number of hTERT Transcripts” value is 17.25. Besides, in the series on viable cells in culture, the “Average Cell Viability after 24 Hours (% DMSO)” value was 60.48 % DMSO.

As to `NC(=O)C1CCN(c2nc3c(S(=O)(=O)c4cccc(Cl)c4)nnn3c3ccsc23)CC1` [compound 1261], the “Average Number of hTERT Transcripts” value in series [1] was found to be 40.28. In addition, in the series on viable cells in culture, the “Average Cell Viability after 24 Hours (% DMSO)” value worked out at 85.18 % DMSO.

In the case of `CCOc1cc(Br)cc(/C=N/NC(=O)COc2cccc(C)c2)c1O` [compound 1262], in series [1], the “Average Number of hTERT Transcripts” value is given as 8.78. In addition, the “Average Cell Viability after 24 Hours (% DMSO)” value with viable cells in culture is reported as 57.61 % DMSO.

As to `Cc1ccc(O)c(/C=N/NC(=O)c2ccc(Br)cc2)c1` [compound 1263], the “Average Number of hTERT Transcripts” value in series [1] amounted to 53.36. Further, the “Average Cell Viability after 24 Hours (% DMSO)” value in the series on viable cells in culture came out at 64.51 % DMSO.

As for `O=C(N/N=C/c1cc(Cl)ccc1O)c1ccc(Br)cc1` [compound 1264], the “Average Number of hTERT Transcripts” value in series [1] is 33.41. Moreover, the “Average Cell Viability after 24 Hours (% DMSO)” value in the series with viable cells in culture stood at 64.22 % DMSO.

`O=C(N/N=C/c1ccccn1)c1ccccc1` [compound 1265]: the “Average Number of hTERT Transcripts” value in series [1] is reported as 4.42. The “Average Cell Viability after 24 Hours (% DMSO)” value in the series with viable cells in culture is given as 81.94 % DMSO.

On to `O=C(N/N=C/c1c(O)ccc2ccccc12)c1ccc(Cl)c(Cl)c1` [compound 1266], for which the “Average Number of hTERT Transcripts” value in series [1] is reported as 14.59. Further, the “Average Cell Viability after 24 Hours (% DMSO)” value in the series with viable cells in culture is listed as 50.17 % DMSO.

Consider `O=C(N/N=C/c1ccccc1O)c1sc2ccccc2c1Cl` [compound 1267], for which, in series [1], the “Average Number of hTERT Transcripts” value was 3.76. Further, the “Average Cell Viability after 24 Hours (% DMSO)” value with viable cells in culture stood at 38.10 % DMSO.

Turning to `O=C(N/N=C/C=C/c1ccccc1)c1ccccc1O` [compound 1268], the “Average Number of hTERT Transcripts” value in series [1] turned out to be 14.70. For the same compound, in the series with viable cells in culture, the “Average Cell Viability after 24 Hours (% DMSO)” value turned out to be 80.84 % DMSO.

For `O=C(N/N=C/c1cc(Br)ccc1O)c1cc2ccccc2cc1O` [compound 1269], the “Average Number of hTERT Transcripts” value in series [1] is listed as 93.93. In addition, the “Average Cell Viability after 24 Hours (% DMSO)” value with viable cells in culture stood at 68.44 % DMSO.

As to `CC(C)(C)c1ccc(C(=O)N/N=C/c2c(O)ccc3ccccc23)cc1` [compound 1270], in series [1], the “Average Number of hTERT Transcripts” value was found to be 34.64. Besides, the “Average Cell Viability after 24 Hours (% DMSO)” value with viable cells in culture came to 59.66 % DMSO.

As for `Oc1c(Br)cc(Br)cc1/C=N/Nc1ccccn1` [compound 1271], the “Average Number of hTERT Transcripts” value in series [1] is 38.63. Further, in the series with viable cells in culture, the “Average Cell Viability after 24 Hours (% DMSO)” value came out at 57.70 % DMSO.

As to `Cn1cc(C(=O)N/N=C/c2c(O)ccc3ccccc23)ccc1=O` [compound 1272], the “Average Number of hTERT Transcripts” value in series [1] came out at 33.61. The “Average Cell Viability after 24 Hours (% DMSO)” value with viable cells in culture is 57.10 % DMSO.

Regarding `Cc1ccc(NCC(=O)N/N=C\c2cc(Br)cc(Br)c2O)cc1` [compound 1273], the “Average Number of hTERT Transcripts” value in series [1] came to 40.65. For the same compound, the “Average Cell Viability after 24 Hours (% DMSO)” value in the series on viable cells in culture is on record as 75.55 % DMSO.

As for `O=C(N/N=C/c1cc(Br)cc(I)c1O)c1ccccn1` [compound 1274], the “Average Number of hTERT Transcripts” value in series [1] is given as 20.59. Besides, the “Average Cell Viability after 24 Hours (% DMSO)” value in the series with viable cells in culture was found to be 75.52 % DMSO.
